# From PubChem BioAssay AID493040 (Abbott Labs, 2011)
# Active and inactive are the calls of the source. The rule behind the calls is not given here.
# Legend:
# Experiment in all cases: PubChem AID 493040
# [1] = target: Mitogen-activated protein kinase 14 (Homo sapiens) (UniProt Q16539); conditions: kinase panel binding, pKi; MAPK14
# [2] = target: Cyclin-dependent kinase 2 (Homo sapiens) (UniProt P24941); conditions: kinase panel binding, pKi; CDK2
# [3] = target: Rho-associated protein kinase 2 (Homo sapiens) (UniProt O75116); conditions: kinase panel binding, pKi; ROCK2
# Chain of Rho-associated protein kinase 2 (Homo sapiens) (O75116 whole entry, looked up): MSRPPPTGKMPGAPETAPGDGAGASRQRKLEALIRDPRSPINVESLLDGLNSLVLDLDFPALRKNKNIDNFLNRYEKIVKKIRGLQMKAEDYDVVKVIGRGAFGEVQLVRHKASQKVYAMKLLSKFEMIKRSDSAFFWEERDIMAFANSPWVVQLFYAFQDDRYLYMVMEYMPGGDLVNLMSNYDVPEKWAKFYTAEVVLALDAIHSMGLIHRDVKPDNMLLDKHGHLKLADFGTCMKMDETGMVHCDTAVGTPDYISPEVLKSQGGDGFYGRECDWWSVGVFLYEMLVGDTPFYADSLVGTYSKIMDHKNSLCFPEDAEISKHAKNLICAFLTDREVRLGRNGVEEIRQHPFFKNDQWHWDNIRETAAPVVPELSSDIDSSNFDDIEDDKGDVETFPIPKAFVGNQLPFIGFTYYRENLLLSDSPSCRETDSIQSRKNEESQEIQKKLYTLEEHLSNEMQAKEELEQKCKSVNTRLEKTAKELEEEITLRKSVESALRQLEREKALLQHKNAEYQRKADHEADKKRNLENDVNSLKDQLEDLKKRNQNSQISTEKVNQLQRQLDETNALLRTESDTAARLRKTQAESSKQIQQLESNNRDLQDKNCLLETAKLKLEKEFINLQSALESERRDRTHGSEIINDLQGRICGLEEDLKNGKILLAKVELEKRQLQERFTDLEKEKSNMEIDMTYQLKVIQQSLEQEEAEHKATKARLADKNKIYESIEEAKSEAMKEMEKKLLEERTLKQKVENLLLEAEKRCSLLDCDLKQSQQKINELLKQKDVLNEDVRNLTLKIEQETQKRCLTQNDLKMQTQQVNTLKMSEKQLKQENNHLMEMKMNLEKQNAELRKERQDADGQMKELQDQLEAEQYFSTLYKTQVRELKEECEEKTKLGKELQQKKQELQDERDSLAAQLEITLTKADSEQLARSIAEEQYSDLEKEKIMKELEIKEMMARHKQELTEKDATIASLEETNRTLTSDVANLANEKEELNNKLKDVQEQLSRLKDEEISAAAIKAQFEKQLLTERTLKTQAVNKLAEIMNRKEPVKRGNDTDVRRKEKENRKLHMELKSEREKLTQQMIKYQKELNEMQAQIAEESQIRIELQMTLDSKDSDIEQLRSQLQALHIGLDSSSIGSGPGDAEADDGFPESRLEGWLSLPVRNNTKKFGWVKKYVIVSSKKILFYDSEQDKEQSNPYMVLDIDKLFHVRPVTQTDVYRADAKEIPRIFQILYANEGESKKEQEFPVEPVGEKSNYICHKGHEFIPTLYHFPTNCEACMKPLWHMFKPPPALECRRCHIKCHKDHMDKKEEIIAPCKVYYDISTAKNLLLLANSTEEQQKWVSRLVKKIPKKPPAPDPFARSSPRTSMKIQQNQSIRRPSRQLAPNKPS
# [4] = target: Serine/threonine-protein kinase Sgk2 (Homo sapiens) (UniProt Q9HBY8); conditions: kinase panel binding, pKi; SGK
# Chain of Serine/threonine-protein kinase Sgk2 (Homo sapiens) (Q9HBY8 whole entry, looked up): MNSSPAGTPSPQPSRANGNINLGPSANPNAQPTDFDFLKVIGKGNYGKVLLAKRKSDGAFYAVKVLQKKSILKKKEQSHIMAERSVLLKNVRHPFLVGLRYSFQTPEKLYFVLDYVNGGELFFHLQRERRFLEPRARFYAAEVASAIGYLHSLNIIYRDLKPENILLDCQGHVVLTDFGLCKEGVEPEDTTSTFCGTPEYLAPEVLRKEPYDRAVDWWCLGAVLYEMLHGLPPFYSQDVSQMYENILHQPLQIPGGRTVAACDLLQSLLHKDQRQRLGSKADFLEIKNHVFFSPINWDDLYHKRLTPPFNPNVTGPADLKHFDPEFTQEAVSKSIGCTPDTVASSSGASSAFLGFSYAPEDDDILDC
# [5] = target: Cyclin-dependent kinase 5 (Homo sapiens) (UniProt Q00535); conditions: kinase panel binding, pKi; CDK5
# Chain of Cyclin-dependent kinase 5 (Homo sapiens) (Q00535 whole entry, looked up): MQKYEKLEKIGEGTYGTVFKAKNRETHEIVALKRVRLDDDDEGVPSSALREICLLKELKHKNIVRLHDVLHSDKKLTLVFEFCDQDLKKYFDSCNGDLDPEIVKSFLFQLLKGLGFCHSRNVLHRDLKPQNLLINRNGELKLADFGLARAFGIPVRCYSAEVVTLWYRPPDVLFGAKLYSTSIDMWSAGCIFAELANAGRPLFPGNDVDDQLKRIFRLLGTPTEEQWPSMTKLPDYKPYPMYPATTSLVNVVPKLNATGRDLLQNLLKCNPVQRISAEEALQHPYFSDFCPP
# [6] = target: Cell division cycle 7-related protein kinase (Homo sapiens) (UniProt O00311); conditions: kinase panel binding, pKi; CDC7
# Chain of Cell division cycle 7-related protein kinase (Homo sapiens) (O00311 whole entry, looked up): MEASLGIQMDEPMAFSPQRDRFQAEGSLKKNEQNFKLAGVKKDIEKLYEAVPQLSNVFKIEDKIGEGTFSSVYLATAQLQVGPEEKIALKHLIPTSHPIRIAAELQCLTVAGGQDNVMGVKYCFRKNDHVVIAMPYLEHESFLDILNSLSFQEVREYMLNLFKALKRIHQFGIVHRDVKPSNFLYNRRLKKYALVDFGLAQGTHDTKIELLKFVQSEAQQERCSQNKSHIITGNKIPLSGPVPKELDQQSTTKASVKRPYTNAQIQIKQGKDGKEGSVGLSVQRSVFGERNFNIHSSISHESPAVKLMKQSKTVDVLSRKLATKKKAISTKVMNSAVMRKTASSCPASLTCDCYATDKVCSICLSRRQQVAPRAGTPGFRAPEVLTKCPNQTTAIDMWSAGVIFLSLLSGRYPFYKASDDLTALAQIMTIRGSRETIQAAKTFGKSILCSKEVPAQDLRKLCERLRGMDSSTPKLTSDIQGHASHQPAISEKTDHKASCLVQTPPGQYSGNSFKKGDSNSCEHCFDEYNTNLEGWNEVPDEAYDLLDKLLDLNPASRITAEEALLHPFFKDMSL
# Chain of Mitogen-activated protein kinase 14 (Homo sapiens) (Q16539 whole entry, looked up): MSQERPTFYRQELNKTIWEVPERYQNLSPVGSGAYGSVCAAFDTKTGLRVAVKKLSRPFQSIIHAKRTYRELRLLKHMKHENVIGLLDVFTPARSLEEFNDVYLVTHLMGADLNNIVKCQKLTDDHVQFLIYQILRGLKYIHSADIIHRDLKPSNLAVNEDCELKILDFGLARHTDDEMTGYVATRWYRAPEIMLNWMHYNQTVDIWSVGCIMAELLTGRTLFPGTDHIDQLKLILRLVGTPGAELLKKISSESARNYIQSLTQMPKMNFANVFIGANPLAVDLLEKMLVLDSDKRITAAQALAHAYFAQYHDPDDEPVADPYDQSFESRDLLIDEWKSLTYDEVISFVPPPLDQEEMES
SMILES,Ki [2] [nM],Ki [3],other results
c1ccc(-c2ncc3ccccn23)cc1,–,–,Ki [1]: 50100 nM
CCCCOc1cc(-c2ccncc2)cc2[nH]nc(N)c12,1000,126 nM,–
O=C(Nc1ccc(CO)cc1)c1cnn2c(-c3ccccc3)ccnc12,–,–,Ki [4]: > 10000 nM (inactive)
O=c1cc(-c2ccncc2)nc(NCc2cc(F)cc(F)c2)[nH]1,794,794 nM,–
NC(=O)c1cccc2[nH]c(-c3cccc(NCCN4CCCC4)n3)nc12,–,–,Ki [4]: > 10000 nM (inactive)
NC(=O)c1ccccc1Nc1nc(Nc2ccccc2)ncc1C(F)(F)F,–,501 nM,–
Cc1cc(=O)n2[nH]cc(C(=O)NCc3ccccc3)c2n1,–,2510 nM,–
COc1cc2c(Oc3ccc4[nH]c(C)cc4c3F)ncnc2cc1OCCCN1CCCC1,–,–,Ki [4]: > 10000 nM (inactive)
O=[N+]([O-])c1cccc(-c2nnc3ccc(N4CCCCC4)nn23)c1,631,> 7940 nM (inactive),–
COc1ccc(C=C2SC(=Nc3ccccc3)NC2=O)cc1OC,–,–,Ki [4]: > 10000 nM (inactive)
COCC(C)Nc1cc(-c2c[nH]c3ncccc23)cc(Cl)n1 (centres undefined),158,7.94 nM,–
O=C1Nc2ccccc2Nc2cc(-c3ccncc3F)ccc21,398,126 nM,–
Cc1cccc(CNc2cc(-c3c[nH]c4ncccc34)cc(Cl)n2)c1C,200,31.6 nM,–
Cc1c(C#N)c2nc3ccccc3n2c(=O)c1=CO,–,> 7940 nM (inactive),Ki [4]: > 10000 nM (inactive)
FC(F)(F)c1ccccc1CNc1nccc(-c2c[nH]c3ncccc23)n1,5.01,–,–
Cc1[nH]nc2ccc(-c3cncc(OCCN(C)S(C)(=O)=O)c3)cc12,501,100 nM,–
O=C(O)c1ccccc1Nc1ncnc(Nc2ccc3cn[nH]c3c2)n1,316,> 5010 nM (inactive),Ki [5]: 251 nM
CCN(CCN(C)C)C(=O)c1cccc(-n2nc(C(C)(C)C)cc2NC(=O)Nc2cccc3ccccc23)c1,–,–,Ki [1]: 794 nM
CC(=O)n1ncc2cc(N)ccc21,–,–,Ki [1]: 7940 nM
O=C1Nc2ccccc2Nc2cc(-c3ccncc3)ccc21,1000,316 nM,–
NC(=O)c1ccc(-c2ccnc(N)n2)cc1N1CCCCC1,1260,1580 nM,–
NC(=O)c1ccc(-c2nc(-c3ccc4c(c3)OCO4)c(-c3ccccn3)[nH]2)cc1,–,> 3980 nM (inactive),–
CCOC(=O)c1c[nH]n2c(=O)cc(-c3ccncc3)nc12,–,2000 nM,–

SMILES,Ki [2] [nM],Ki [3],other results
Cc1ccc(Nc2nccc(Nc3ccccc3C(=O)O)n2)cc1F,398,> 7940 nM (inactive),–
CCCn1c(=O)c2[nH]c(-c3cnn(Cc4cccc(C(F)(F)F)c4)c3)nc2n(CC)c1=O,5010,–,–
CN(C)c1cc(-c2ccncc2)cc2[nH]nc(N)c12,631,79.4 nM,–
NC1CCCCC1Nc1nccc(Nc2ccccc2C(=O)O)n1 (centres undefined),–,> 7940 nM (inactive),–
CC(C)(C)c1cc(NC(=O)C(=O)c2cccc3ccccc23)n(-c2ccc(OCC(=O)NCCO)cc2)n1,–,–,Ki [1]: 631 nM
CC(C)(C)c1cc(NC(=O)Nc2cccc3ccccc23)n(-c2cccc(C(=O)N(CCN)CCO)c2)n1,–,–,Ki [1]: 631 nM
O=c1cc(-c2cccc(F)c2)nc2c(-c3ccc(F)cc3)c[nH]n12,–,> 7940 nM (inactive),–
CN(C)CCCOc1cc(-c2ccncc2)cc2[nH]nc(N)c12,3160,251 nM,–
CNCCOc1cncc(-c2ccc3n[nH]c(C)c3c2)c1,501,20 nM,–
CC(C)(C)Oc1cc(-c2ccncc2)cc2[nH]nc(N)c12,126,50.1 nM,–
CN(C)c1ccc(-c2c(-c3ccc4[nH]nc(N)c4c3)nnn2Cc2ccccc2)cc1,126,20 nM,Ki [6]: 0.398 nM
CC(C)(C)c1cc(NC(=O)c2cc3ccccc3s2)n(-c2ccc(OCC(=O)O)cc2)n1,–,–,Ki [1]: 2510 nM
Cc1cc(=O)[nH]nc1-c1ccc(NC(=O)Nc2cc(C(F)(F)F)ccc2F)c(Cl)c1,–,–,Ki [1]: 100 nM
NC(=O)c1ccc(-c2ccncc2)cc1NCc1cccc(F)c1,3160,5010 nM,–
O=C1N=c2ccc(Br)cc2=C1c1sc(=S)[nH]c1O,–,–,Ki [4]: 2000 nM
O=c1ncn2nc(Sc3ccc(F)cc3F)ccc2c1-c1c(Cl)cccc1Cl,–,–,Ki [4]: > 7940 nM (inactive)
O=C(NCc1ccccc1)c1c[nH]n2c(=O)cc(-c3ccncc3)nc12,158,> 7940 nM (inactive),–
CN(Cc1ccccc1)c1cc(-c2c[nH]c3ncccc23)cc(Cl)n1,31.6,20 nM,–
Oc1cccc(-c2nc(N3CCOCC3)c3oc4ncccc4c3n2)c1,–,–,Ki [4]: > 7940 nM (inactive)
O=C1Nc2ccccc2Nc2cc(-c3ccncc3Cl)ccc21,501,631 nM,–
CCCCNc1cc(-c2c[nH]c3ncccc23)ncn1,200,20 nM,–
CC(C)(C)c1cc(NC(=O)c2cc3ccccc3s2)n(-c2cccc(OCC(=O)O)c2)n1,–,–,Ki [1]: 794 nM
